System: microorganisms
Experiment: Biocidal activity evaluation, overall comparison in words
Assay type: cell-based
Protocol: The biocidal activity evaluations of the present invention quaternary ammonium salts and mixtures thereof as well as of commercially available biocides (for comparison purposes) were conducted using the Dynatech MIC-2000 system (available from Dynatech Laboratories, Inc., Alexandria, Va.). The Dynatech MIC-2000 system provides a quantitative factor, namely the specific concentration of the compound that inhibits the growth of a test organism.
All compounds were prepared for testing by initially making a 1.0% w/v solution. These were then serially diluted so as to yield concentrations of sample in a range of 2000-16 mg/l. Testing was carried out under aseptic conditions in Trypticase Soy Broth (BBL, Div. Becton, Dickinson & Co., Cockeysville, MD). Each test was performed in duplicate and run at pH levels of 7.0, 8.0, and 9.0. The pH of the test medium was adjusted by the addition of 10% w/v NaOH before sterilization.
Organisms utilized for MIC testing were all purchased from the American Type Culture Collection (ATCC), Rockville, MD. The six organisms chosen for these tests were:
Inocula were prepared in Brain Heart Infusion Broth (BHI, Difco Laboratories, Detroit, MI), and standardized to 3.0×10^8 CFU/ml in 0.85% sterile saline. […] Plates were read and evaluated at this time, and results reported in mg/l of compound that inhibited the growth of the test organisms.

## O=[N+]([O-])C(Br)(CO)CO [Bronopol]
  biocidal activity (in words): more active than the quaternary ammonium salts of the present invention
